This note sets out measurements from patent US20230140983A1, “PYRIDAZINE DERIVATIVES FOR MODULATING NUCLEIC ACID SPLICING” (REMIX THERAPEUTICS INC., priority 2020, published 2023).

In this assay the test system is HTT. Put plainly: Splicing assay (RT-qPCR on cell lysates) monitoring HTT splice variants: AJ and CJ mRNA. Type of assay: cell-based. The following applies: concentration having 50% response. Here is the method:
Example 69: Exemplary Splicing Assay for Monitoring Expression Levels of Splice Variants
To set up 10 uL RT-qPCR reactions, cell lysates were transferred to 384-well qPCR plates containing the master mix according to the table below. The plates were sealed, gently vortexed, and spun down before the run. The volumes were adjusted accordingly in some instances where the reaction was carried in 20 uL. The table below summarizes the components of the RT-qPCR reactions:
The RT-qPCR reaction was performed using a QuantStudio (ThermoFisher) under the following fast cycling conditions. All samples and standards were analyzed at least in duplicate. In some instances, bulk room temperature (RT) step of 5-10 minutes was completed for all plates before proceeding with qPCR. The table below summarizes the PCR cycle:
The data analysis was performed by first determining the ΔCt vs the housekeeper gene. This ΔCt was then normalized against the DMSO control (ΔΔCt) and converted to RQ (relative quantification) using the 2^(−ΔΔCt) equation. The RQ were then converted to a percentage response by arbitrarily setting an assay window of 3.5 ΔCt for HTT-CJ and an assay window of 9 ΔCt for HTT-AJ. […] The percentage response was then fitted to the 4 parametric logistic equation to evaluate the concentration dependence of compound treatment. The increase in AJ mRNA is reported as AC50 (compound concentration having 50% response in AJ increase) while the decrease in CJ mRNA levels is reported as IC50 (compound concentration having 50% response in CJ decrease).
On the technique in general: Real-time PCR tracks product formation cycle by cycle.

Where [1] appears, read: Table 8, decrease in CJ mRNA, read-out: HTT CJ AC50.
Setting [2] is: Table 8, increase in AJ mRNA, read-out: HTT AJ AC50.
[3] abbreviates: Table 7, decrease in CJ mRNA, read-out: HTT CJ AC50.
The mark [4] stands for this setting: Table 7, increase in AJ mRNA, read-out: HTT AJ AC50.

Like-named read-outs stand apart in the source and are kept apart here.

`c1n[nH]cc1-c1ccc(-c2ccc(N3CCCC4(CCNC4)C3)nn2)c2[nH]ncc12` (stereo not drawn) [Compound 253]: the AC50 – broadly, the concentration at which the activity in the assay is half-maximal – was above 10 µM under setting [1] and above 10 µM under setting [2]. Regarding `c1nc2c(-c3cn[nH]c3)ccc(-c3ccc(N4CCC45CCNCC5)nn3)c2s1` [Compound 266], the AC50 was 1 to 10 µM under setting [1] and above 10 µM under setting [2]. Take `CN(c1ccc(-c2ccc(-c3cnn(C)c3)c3cn[nH]c23)nn1)C1CC(C)(C)NC(C)(C)C1` [Compound 243, N-methyl-6-[4-(1-methylpyrazol-4-yl)-1H-indazol-7-yl]-N-(2,2,6,6-tetramethylpiperidin-4-yl)pyridazin-3-amine; trifluoroacetic acid]: the AC50 by setting is: under setting [1], 1 to 10 µM; under setting [2], 1 to 10 µM. As to `[2H]C([2H])([2H])N(c1ccc(-c2ccc(-c3cn[nH]c3)c3cn[nH]c23)nn1)C1CCNCC1` [Compound 267], the AC50 under setting [1] was above 10 µM and the AC50 under setting [2] is above 10 µM. Turning to `CN(c1ccc(-c2ccc(-c3cnn(C)c3)c3cn[nH]c23)nn1)[C@@H]1C[C@H]2CC[C@@H](C1)N2` [Compound 143], the AC50 by setting is: under setting [3], below 0.5 µM; under setting [4], 0.5 to 5 µM. On to `CCN(c1ccc(-c2ccc(-c3cn[nH]c3)c3cn[nH]c23)nn1)C1CCNCC1` [Compound 274], for which the AC50 was above 10 µM under setting [1] and above 10 µM under setting [2]. Consider `CN(c1ccc(-c2ccc(-c3cn[nH]c3)c3cn[nH]c23)nn1)C1CCNCC1` [Compound 273], for which the AC50 under setting [1] was above 10 µM and the AC50 under setting [2] is above 10 µM.

`C[C@H]1C[C@@H](N(C)c2ccc(-c3ccc(-n4cccn4)c4cn[nH]c34)nn2)CCN1` [Compound 159]: the AC50 was above 5 µM under setting [3] and above 5 µM under setting [4]. Consider `c1n[nH]cc1-c1ccc(-c2ccc(N3CCC4(CCNC4)CC3)nn2)c2[nH]ncc12` [Compound 240], for which the AC50 is, setting by setting: under setting [1], above 10 µM; under setting [2], above 10 µM. Regarding `CN(c1ccc(-c2ccc(-c3cn[nH]c3)c3ncsc23)nn1)C1CC(C)(C)NC(C)(C)C1` [Compound 132, N-methyl-6-[4-(1H-pyrazol-4-yl)-1,3-benzothiazol-7-yl]-N-(2,2,6,6-tetramethylpiperidin-4-yl)pyridazin-3-amine], the AC50 under setting [3] was below 0.5 µM and the AC50 under setting [4] is below 0.5 µM. Turning to `c1n[nH]cc1-c1ccc(-c2ccc(N3C[C@H]4CNC[C@H]4C3)nn2)c2[nH]ncc12` [Compound 254], the half-maximal activity concentration (AC50) was above 10 µM under setting [1] and above 10 µM under setting [2]. For the compound `c1nc2c(-c3cn[nH]c3)ccc(-c3ccc(N4CCC45CCNC5)nn3)c2s1` (stereo not drawn) [Compound 277], the AC50 was above 10 µM under setting [1] and above 10 µM under setting [2]. Regarding `CN(c1ccc(-c2ccc(-c3ccc(=O)n(C)c3)c3ncsc23)nn1)C1CC(C)(C)NC(C)(C)C1` [Compound 281], the AC50 by setting is: under setting [1], above 10 µM; under setting [2], above 10 µM. In the case of `CN1C[C@@H]2CN(c3ccc(-c4ccc(-c5cn[nH]c5)c5cn[nH]c45)nn3)C[C@@H]2C1` [Compound 255], the AC50 was above 10 µM under setting [1] and above 10 µM under setting [2]. As to `CN(c1ccc(-c2ccc(-c3cn[nH]c3)c3cn[nH]c23)nn1)C1CC(C)(C)NC(C)(C)C1` [Compound 137, N-methyl-6-[4-(1H-pyrazol-4-yl)-1H-indazol-7-yl]-N-(2,2,6,6-tetramethylpiperidin-4-yl)pyridazin-3-amine], the AC50 reads like this: under setting [3], 0.5 to 5 µM; under setting [4], 0.5 to 5 µM. Regarding `C[C@@H]1C[C@H](N(C)c2ccc(-c3ccc(-c4cn[nH]c4)c4c3NC(=O)C4)nn2)CCN1` [Compound 121, 7-(6-[methyl[(2R,4R)-2-methylpiperidin-4-yl]amino]pyridazin-3-yl)-4-(1H-pyrazol-4-yl)-1,3-dihydroindol-2-one], under setting [4], the AC50 was above 5 µM. Regarding `CC1(C)CC(Oc2ccc(-c3ccc(-c4cn[nH]c4)c4cn[nH]c34)nn2)CC(C)(C)N1` [Compound 138, 4-(1H-pyrazol-4-yl)-7-[6-[(2,2,6,6-tetramethylpiperidin-4-yl)oxy]pyridazin-3-yl]-1H-indazole], the AC50 under setting [3] was below 0.5 µM and the AC50 under setting [4] lay within 0.5 to 5 µM. On to `C[C@H]1C[C@@H](N(C)c2ccc(-c3ccc(-c4cn[nH]c4)c4cn[nH]c34)nn2)CCN1` [Compound 160], for which the AC50 reads like this: under setting [3], above 5 µM; under setting [4], above 5 µM. In the case of `c1n[nH]cc1-c1ccc(-c2ccc(NC3CCNCC3)nn2)c2[nH]ncc12` [Compound 263, N-(piperidin-4-yl)-6-[4-(1H-pyrazol-4-yl)-1H-indazol-7-yl]pyridazin-3-amine hydrogen chloride], the AC50 is, setting by setting: under setting [1], above 10 µM; under setting [2], above 10 µM. As to `CN(c1ccc(-c2ccc(-n3cccn3)c3cn[nH]c23)nn1)C1CC(C)(C)NC(C)(C)C1` [Compound 150, N-methyl-6-[4-(pyrazol-1-yl)-1H-indazol-7-yl]-N-(2,2,6,6-tetramethylpiperidin-4-yl)pyridazin-3-amine], the AC50 was 0.5 to 5 µM under setting [3] and 0.5 to 5 µM under setting [4]. Regarding `C[C@H]1C[C@@H](N(C)c2ccc(-c3ccc(-c4cn[nH]c4)c4cc[nH]c34)nn2)CCN1` [Compound 108, N-methyl-N-[(2S,4S)-2-methylpiperidin-4-yl]-6-[4-(1H-pyrazol-4-yl)-1H-indol-7-yl]pyridazin-3-amine], the AC50 runs as follows: under setting [3], above 5 µM; under setting [4], above 5 µM.

As to `CN(c1ccc(-c2ccc(-c3cn[nH]c3)c3cc[nH]c23)nn1)[C@@H]1C[C@H]2CC[C@@H](C1)N2` [Compound 112, (1R,3S,5S)—N-methyl-N-[6-[4-(1H-pyrazol-4-yl)-1H-indol-7-yl]pyridazin-3-yl]-8-azabicyclo[3.2.1] octan-3-amine], the AC50 under setting [3] was below 0.5 µM and the AC50 under setting [4] lay within 0.5 to 5 µM. With `CN(c1ccc(-c2ccc(-n3cccn3)c3nn[nH]c23)nn1)[C@@H]1C[C@H]2CC[C@@H](C1)N2` [Compound 119, (1R,3S,5S)—N-methyl-N-[6-[7-(pyrazol-1-yl)-3H-1,2,3-benzotriazol-4-yl]pyridazin-3-yl]-8-azabicyclo[3.2.1]octan-3-amine], the AC50 under setting [3] was 0.5 to 5 µM and the AC50 under setting [4] was above 5 µM. For `CN(c1ccc(-c2ccc(-c3cn[nH]c3)c3cn[nH]c23)nn1)[C@@H]1C[C@H]2CC[C@@H](C1)N2` [Compound 104, (1R,3S,5S)—N-methyl-N-[6-[4-(1H-pyrazol-4-yl)-1H-indazol-7-yl]pyridazin-3-yl]-8-azabicyclo[3.2.1]octan-3-amine], the half-maximal activity concentration (AC50) under setting [4] was below 0.5 µM. The same measure, in the same setting: the figure for `C[C@H]1C[C@H](N(C)c2ccc(-c3ccc(-c4cn[nH]c4)c4cc[nH]c34)nn2)CCN1` [Compound 157] is above 5 µM. On to `CC1C[C@@H](N(C)c2ccc(-c3ccc(-n4cccn4)c4cc[nH]c34)nn2)CCN1` (stereo in doubt) [Compound 111, N-methyl-N-[(2R,4S)-2-methylpiperidin-4-yl]-6-[4-(pyrazol-1-yl)-1H-indol-7-yl]pyridazin-3-amine], for which the AC50 reads like this: under setting [3], above 5 µM; under setting [4], above 5 µM.

On to `C[C@@H]1C[C@H](N(C)c2ccc(-c3ccc(-c4cn[nH]c4)c4nn[nH]c34)nn2)CCN1` [Compound 115], for which the AC50 under setting [4] is above 5 µM. For `c1n[nH]cc1-c1ccc(-c2ccc(N3CCCC4(CNC4)C3)nn2)c2[nH]ncc12` [Compound 251], the AC50 under setting [1] was above 10 µM and the AC50 under setting [2] is above 10 µM. For the compound `c1n[nH]cc1-c1ccc(-c2ccc(NC3CNC3)nn2)c2[nH]ncc12` [Compound 237], the AC50 was above 10 µM under setting [1] and above 10 µM under setting [2].
